The values that follow come from paper PMC5906549, “Cathelicidin-Derived Antimicrobial Peptides Inhibit Zika Virus Through Direct Inactivation and Interferon Pathway” (Frontiers in Immunology, 2018).

Data set [1] in a line: Cell viability MTS assay in Vero cells. The following applies: African green monkey. How it is done:
Cell viability was examined by the CellTiter 96 ®Aqueous One Solution Cell Proliferation Assay (Promega, Madison, WI, USA). Vero cells and astrocytes were seeded into 96-well tissue culture plates (Fisher Scientific) and treated with fresh growth medium containing different concentrations of each peptide for 2 or 4 days at 37°C. At the experimental end point, MTS [3-(4,5-dimethylthiazol-2-yl)-5-(3-carboxymethoxyphenyl)-2-(4-sulfophenyl)-2H-tetrazolium] was added to the cultures and incubated for 1 h. The absorbance at 490 nm was recorded through BioTek Gen5 data analysis software (Winooski), VT, optical density (OD) values were used as a representation of cell viability.
(A) Vero cells were treated with doses of peptides ranging from 1 to 50 µM. After 24 h, the cultures were washed and treated with same doses of peptides in fresh medium for another 24 h. Cell viability was determined by a colorimetric MTS assay. Results shown are the averages ±SD of experiments performed in triplicate. Data were analyzed by non-linear regression. The EC50 was assessed for each of the antimicrobial peptides. (B) Vero cells were treated with doses of peptides ranging from 0.4 to 10 µM for 2 h then infected with ZIKV at the MOI of 0.5. After 24 h, the cultures were washed and treated with same doses of peptides in fresh medium for another 24 h. ZIKA RNA was detected in total cellular RNA through real-time RT-PCR. Data were normalized to GAPDH and presented as fold change (in log scale) compared with ZIKV group. ** p < 0.01 and *** p < 0.001, as compared with the ZIKV group without the peptide treatment (ANOVA, N = 3).
A, B) Vero cells were treated with 10 µM AMPs for 2 days or 4 days as outlined in the figure. For 4-day treatment, Vero cells were repeatedly treated with 10 µM AMPs at 2-day post-treatment. At the experimental end point, cell viability was determined by a colorimetric MTS assay CellTiter 96® AQueous One Solution Assay (Promega, Madison, WI) based on the manufacture’s instruction. Results were normalized as percentage of cell viability in control astrocytes. CTL, control. * denotes p < 0.05, ** denotes p < 0.01, *** denotes p < 0.001 as compared to the control group without peptide treatment (ANOVA, N = 3).
On the technique in general: Tetrazolium assays rely on reduction of a dye to a coloured formazan, in cell work by metabolically active cells.

The subject of data set [2] is ZIKV strain MR766. The data set is described as follows: ZIKV RNA in infected Vero cells, peptide pre-treatment (real-time RT-PCR). The data set is classed as cell-based, Zika virus. The following applies: 2 h before ZIKV MOI 0.5, re-treated at 24 h, 48-h post-infection, RT-PCR normalized to GAPDH, N = 3. On the procedure:
Human fetal astrocytes were derived from a single-cell isolation process of fetal brain tissues as previously described ([25], [26]). Briefly, dissociated brain tissue was incubated with 0.25% trypsin for 30 min, followed by neutralization with 10% fetal bovine serum (FBS), and further dissociated by trituration. The single-cell suspension was cultured as adherent cells in DMEM/F12 (Thermo Fisher Scientific, Waltham, MA, USA), supplemented with 10% FBS, penicillin (50 units/mL), and streptomycin (50 µg/mL) (Thermo Fisher Scientific). […] Vero cells (ATCC, CCL-81), an African green monkey kidney cell line, were maintained in Dulbecco’s Modified Eagle Medium (DMEM) with 5% FBS. Experiments with ZIKV were performed exclusively inside a BioSafety Level 2 (laboratory). All procedures utilized in this study were approved by the Institutional Biosafety Committee (IBC 16-05-013BL2) and followed biosafety level II practices as shown in National Institutes of health (NIH) Guideline Appendix G-II-B. ZIKV strain MR766 (Uganda, 1947) was obtained from ZeptoMetrix Corp., Buffalo, NY, USA, and propagated in Vero cells. ZIKV infection of the Vero cells and fetal astrocytes was previously characterized ([27]) and all infections in the current studies were at the MOI of 0.5.
Total mRNA was isolated with TRIzol Reagent (Thermo Fisher Scientific) and RNeasy Mini Kit (QIAGEN Inc., Valencia, CA, USA) following the manufacturer’s recommendations. Two real-time RT-PCR methods were used for the current studies. First, SYBR Green-based RT-PCR assay was used to determine intracellular ZIKV RNA in Vero cells. For this assay, reverse transcription was performed using Verso cDNA synthesis Kit (Thermo Fisher Scientific) and 1 µg of total RNA in a 15-µL final volume. The RT-PCR analyses were performed using 7.5-µL SYBR Green PCR Master Mix (Thermo Fisher Scientific) with 0.5-µL cDNA, 1.5-µL H2O, 5.5-µL oligonucleotide primer pairs at 10 µM. […] GG-3. PCR program: 1, 50°C for 2 min; 2, 95°C for 2 min; 3, 95°C for 15 s; 4, specific annealing temperature for 15 s; 5, 72°C for 1 min. Steps 2–4 were repeated 40 times. All samples were amplified in triplicate for analysis. Relative ZIKV RNA levels were determined and standardized with a GAPDH internal control using comparative ΔΔCT method ([35]). Second, TaqMan-based RT-PCR assay was used to determine intracellular ZIKV RNA and other gene expressions in Figures 3–6 and extracellular ZIKV RNA in Figure 3. The TaqMan assay was performed in a StepOne^TM Real-Time PCR system (Thermo Fisher Scientific). Primers used for TaqMan real-time RT-PCR were all from the Thermo Fisher Scientific, which included ZIKV (forward sequence: 5-[…]-3, reverse sequence: 5- […]-3, and probe sequence: 5′-[…]-3), IFN-α2 (Hs00265051_s1), IFN-β1 (Hs01077958_s1), eukaryotic 18-s rRNA (Hs99999901_s1), β-actin (Hs99999903_m1), and GAPDH (Catalog number: 4310884E). Relative ZIKV mRNA levels were determined and standardized with a GAPDH or 18-s rRNA endogenous control using comparative ΔΔCT method ([35]). […] For ZIKV in supernatants, RNA was extracted from the supernatants through TRIzol™ LS Reagent (Thermo Fisher Scientific, 10296028) following the manufacturer’s manual. […] Quantitative genomic RNA from ZIKV (NR-1838DQ, ATCC) was used as a standard to calculate viral copies.

For data set [3], the system named is ZIKV strain MR766. The data set is described as follows: ZIKV RNA in astrocytes with recombinant IFN-α or with inhibition of type-I IFN signaling. Type of data set: cell-based, Zika virus. The following applies: astrocytes pretreated 2 h with anti-IFN-α neutralizing antibodies (200 neutralizing units/mL) or 1-µM fludarabine, then AMPs 2 h, ZIKV MOI 0.5; RNA at 24 h. On the procedure: Total mRNA was isolated with TRIzol Reagent (Thermo Fisher Scientific) and RNeasy Mini Kit (QIAGEN Inc., Valencia, CA, USA) following the manufacturer’s recommendations. Two real-time RT-PCR methods were used for the current studies. First, SYBR Green-based RT-PCR assay was used to determine intracellular ZIKV RNA in Vero cells. For this assay, reverse transcription was performed using Verso cDNA synthesis Kit (Thermo Fisher Scientific) and 1 µg of total RNA in a 15-µL final volume. The RT-PCR analyses were performed using 7.5-µL SYBR Green PCR Master Mix (Thermo Fisher Scientific) with 0.5-µL cDNA, 1.5-µL H2O, 5.5-µL oligonucleotide primer pairs at 10 µM. […] GG-3. PCR program: 1, 50°C for 2 min; 2, 95°C for 2 min; 3, 95°C for 15 s; 4, specific annealing temperature for 15 s; 5, 72°C for 1 min. Steps 2–4 were repeated 40 times. All samples were amplified in triplicate for analysis. Relative ZIKV RNA levels were determined and standardized with a GAPDH internal control using comparative ΔΔCT method ([35]). […] Relative ZIKV mRNA levels were determined and standardized with a GAPDH or 18-s rRNA endogenous control using comparative ΔΔCT method ([35]). […] Quantitative genomic RNA from ZIKV (NR-1838DQ, ATCC) was used as a standard to calculate viral copies.

Peptide text beside a SMILES is read from it.

Broadly, the EC50 is the concentration at which the effect is half-maximal.

The compound `CC[C@H](C)[C@H](N)C(=O)N[C@@H](CCCCN)C(=O)N[C@@H](Cc1c[nH]c2ccccc12)C(=O)N[C@@H](CCCCN)C(=O)N[C@@H](CCCCN)C(=O)N[C@@H](CC(C)C)C(=O)N[C@@H](CC(C)C)C(=O)N[C@@H](CCCNC(=N)N)C(=O)N[C@@H](C)C(=O)N[C@@H](C)C(=O)N[C@@H](CCCCN)C(=O)N[C@@H](CCCNC(=N)N)C(=O)N[C@H](C(=O)N[C@@H](CC(C)C)C(=O)O)[C@@H](C)CC` [DASamP2] (H-IKWKKLLRAAKRIL-OH) had an EC50 at 48 h in data set [1] of more than 50 µM. For the same compound, in the data set with ZIKV strain MR766 [2] (peptide 2 µM), the “ZIKV RNA compared with untreated controls” value is reported as “significantly decreased ZIKV RNA”.

Compound `CC[C@@H](C)[C@@H](NC(=O)CN)C(=O)N[C@H](CCCCN)C(=O)N[C@H](CCC(=O)O)C(=O)N[C@H](Cc1ccccc1)C(=O)N[C@H](CCCCN)C(=O)N[C@H](CCCNC(=N)N)C(=O)N[C@@H](C(=O)N[C@@H](C(=O)N[C@H](CCC(N)=O)C(=O)N[C@H](CCCNC(=N)N)C(=O)N[C@@H](C(=O)N[C@H](CCCCN)C(=O)N[C@H](CC(=O)O)C(=O)N[C@H](Cc1ccccc1)C(=O)N[C@H](CC(C)C)C(=O)N[C@H](CCCNC(=N)N)C(=O)N[C@H](CC(N)=O)C(=O)N[C@H](CC(C)C)C(=O)N[C@@H](C(=O)O)C(C)C)[C@H](C)CC)C(C)C)[C@H](C)CC` [GI-20D-form] gave a 50% effective concentration (EC50) at 48 h in data set [1] of 4 µM. The “ZIKV RNA compared with untreated controls” value with ZIKV strain MR766 [2] (peptide 0.4 µM) and with ZIKV strain MR766 [2] (peptide 2 µM) was “significantly decreased ZIKV RNA” each time.

Compound `CC[C@H](C)[C@H](NC(=O)CN)C(=O)N[C@@H](CCCCN)C(=O)N[C@@H](CCC(=O)O)C(=O)N[C@@H](Cc1ccccc1)C(=O)N[C@@H](CCCCN)C(=O)N[C@@H](CCCNC(=N)N)C(=O)N[C@H](C(=O)N[C@H](C(=O)N[C@@H](CCC(N)=O)C(=O)N[C@@H](CCCNC(=N)N)C(=O)N[C@H](C(=O)N[C@@H](CCCCN)C(=O)N[C@@H](CC(=O)O)C(=O)N[C@@H](Cc1ccccc1)C(=O)N[C@@H](CC(C)C)C(=O)N[C@@H](CCCNC(=N)N)C(=O)N[C@@H](CC(N)=O)C(=O)N[C@@H](CC(C)C)C(=O)N[C@H](C(=O)O)C(C)C)[C@@H](C)CC)C(C)C)[C@@H](C)CC` [GI-20] yielded a concentration for a half-maximal effect (EC50) at 48 h in data set [1] of more than 50 µM. The “ZIKV RNA compared with untreated controls” value in the data set on ZIKV strain MR766 [2] (peptide 0.4 µM) and in the data set with ZIKV strain MR766 [2] (peptide 2 µM) was “significantly decreased ZIKV RNA” in each case.

Turning to `CC[C@H](C)[C@H](NC(=O)[C@H](CCCCN)NC(=O)[C@H](CCC(=O)O)NC(=O)[C@H](CCCCN)NC(=O)[C@H](CO)NC(=O)[C@H](CCCCN)NC(=O)[C@H](CCCNC(=N)N)NC(=O)[C@H](Cc1ccccc1)NC(=O)[C@H](Cc1ccccc1)NC(=O)[C@H](CC(=O)O)NC(=O)CNC(=O)[C@H](CC(C)C)NC(=O)[C@@H](N)CC(C)C)C(=O)NCC(=O)N[C@@H](CCCCN)C(=O)N[C@@H](CCC(=O)O)C(=O)N[C@@H](Cc1ccccc1)C(=O)N[C@@H](CCCCN)C(=O)N[C@@H](CCCNC(=N)N)C(=O)N[C@H](C(=O)N[C@H](C(=O)N[C@@H](CCC(N)=O)C(=O)N[C@@H](CCCNC(=N)N)C(=O)N[C@H](C(=O)N[C@@H](CCCCN)C(=O)N[C@@H](CC(=O)O)C(=O)N[C@@H](Cc1ccccc1)C(=O)N[C@@H](CC(C)C)C(=O)N[C@@H](CCCNC(=N)N)C(=O)N[C@@H](CC(N)=O)C(=O)N[C@@H](CC(C)C)C(=O)N[C@H](C(=O)N1CCC[C@H]1C(=O)N[C@@H](CCCNC(=N)N)C(=O)N[C@H](C(=O)N[C@@H](CCC(=O)O)C(=O)N[C@@H](CO)C(=O)O)[C@@H](C)O)C(C)C)[C@@H](C)CC)C(C)C)[C@@H](C)CC` [LL-37, reference compound], the “ZIKV RNA compared with untreated controls” value in the data set with ZIKV strain MR766 [2] (peptide 0.4 µM) and with ZIKV strain MR766 [2] (peptide 2 µM) was “significantly decreased ZIKV RNA” throughout.

For `Nc1nc(F)nc2c1ncn2[C@@H]1O[C@H](CO)[C@@H](O)[C@@H]1O` [fludarabine, Fludarabine], the “Effect on GF-17- and BMAP-18-mediated ZIKV inhibition” value with ZIKV strain MR766 [3] is listed as “dampened but did not completely block”.
